These results are taken from PMC9835592, “Allosteric inhibition of Staphylococcus aureus MenD by 1,4-dihydroxy naphthoic acid: a feedback inhibition mechanism of the menaquinone biosynthesis pathway” (Philosophical Transactions of the Royal Society B: …, 2023).

In data set [1] the target is T1, Sau-MenDATCC 25923 (Staphylococcus aureus, UniProt Q5HH40). Briefly: UV spectroscopy assay of isochorismate consumption, DHNA inhibition. Format: biochemical.
Data set [2] addresses Sau-MenDIS1 Arg98Ala mutant (Staphylococcus aureus, UniProt Q2FZL7, R98A). Described as above.
The subject of another data set is Mtb-MenD. Also on record: method as in PMID 32029475. As to conditions: 0.6 µM Mtb-MenD; read-out: IC50 of DHNA, SEPHCHC activity; cited from earlier work.
The subject of data set [3] is Sau-MenDIS1 Lys283Ala mutant (Staphylococcus aureus, K283A). The data set is described as follows: UV spectroscopy assay of isochorismate consumption, DHNA inhibition. As to conditions: four-parameter Hill fit; complete CI not determinable, best-fit value to be interpreted with caution.
In data set [4] the target is Sau-MenDIS1 Lys283Ala mutant (Staphylococcus aureus, UniProt Q5HH40, K283A). The description is as above.
The target of the next data set is WT Sau-MenDIS1 (Staphylococcus aureus, UniProt Q2FZL7). Briefly: UV spectroscopy assay of isochorismate consumption (SEPHCHC synthase activity), DHNA inhibition. Format: biochemical.
For data set [5], the system named is four different Sau strains. Briefly: Growth assay with exogenous DHNA in LB medium (OD600). The settings on record: 37°C, 24 h.
The target in a further data set is Sau-MenDIS1 (Staphylococcus aureus, UniProt Q2FZL7). Briefly: Intrinsic fluorescence quenching upon DHNA titration. It counts as binding. As to the method:
(§1) Intrinsic fluorescence quenching experiments were performed at 25°C with a Varian Cary Eclipse Fluorescence Spectrophotometer (Agilent Technologies) with slits set at 5 nm bandwidth. The excitation wavelength was 290 nm and emission spectra were recorded in the 300–400 nm range. […] For Sau-MenD samples in the presence of the reaction ligands, the enzyme was preincubated with 100 µM ThDP only or 100 µM ThDP and 300 µM oxoglutarate for 45 min at ambient temperature. DHNA (Sigma-Aldrich) was titrated from stock solutions that were prepared in the assay buffer and kept on ice. Following DHNA addition, cuvette contents were mixed immediately and fluorescence intensity was measured.
(§2) The fluorescence intensities obtained at 340 nm were corrected for the dilution factor as well as for inner filter effects using equation (2.1),2.1 Fi corr=Fi dil ×10^Aex+Aem/2, where Fi corr is the corrected value of fluorescence intensity at the titration point, Fi dil is the dilution-corrected fluorescence intensity measured, and Aex and Aem are the absorbance of DHNA at excitation (290 nm) and emission wavelengths (340 nm).
(§3) Corrected intensities were plotted against the DHNA concentration and, to determine the Kd value for DHNA, the resulting data were fitted in GraphPad Prism 9 using equation (2.2),2.2 F=Fmax−(X+Kd+M−(X+Kd+M)^2−4XM)/2M(Fmax−Fmin), where F is the measured fluorescence intensity of Sau-MenD, Fmax is the fluorescence intensity of Sau-MenD in the absence of DHNA, Fmin is the fluorescence intensity when Sau-MenD is saturated with DHNA, M is the micromolar concentration of enzyme used in the assay, X is the micromolar DHNA concentration and Kd is the dissociation constant.

For data set [6], the target named is T1, Sau-MenDATCC 25923. The description is as above. Format: binding. The settings on record: 1 µM enzyme. As to the method:
as §1, §2, §3

The test system of another data set is Sau. The arrangement: method as in PMID 35091344. The settings on record: addition to culture medium; cited from earlier work.
The target in data set [7] is Sau-MenDIS1 Lys309Ala mutant (Staphylococcus aureus, UniProt Q2FZL7, K309A). Briefly: UV spectroscopy assay of isochorismate consumption, DHNA inhibition.
A further data set deals with Pseudomonas aeruginosa. Briefly: Growth assay with exogenous DHNA in LB medium (OD600), control bacterium. The settings on record: DHNA concentrations up to 150 µM, 37°C, 24 h.
In another data set the test system is Sau strains. The data set is described as follows: MK-4 growth rescue assay (OD600). Format: cell-based, Staphylococcus aureus. The settings on record: 24 h.
Data set [8] concerns the molecule itself. Briefly: native MS; protein exchanged from SEC buffer into 2 M ammonium acetate pH 7.4; Sau-MenDIS1 4.7 mg/ml, Sau-MenD ATCC 25923 6.3 mg/ml; gold-coated glass capillaries, Synapt XS, soft ionization.
The mark [9] stands for this setting: four-parameter logistic Hill fit of DHNA inhibition.
Setting [10] is: read-out: activity reduction in the presence of 12.5 µM DHNA.

Substitutions are numbered along the chain they refer to. Where two headings read alike, the source gives them in different places.

The Hill slope is the slope factor of the fitted curve. As a reminder, the IC50 is the midpoint of a concentration-inhibition curve. What is called Kd is the concentration at which binding is half-saturated. As usually defined, the stoichiometry N is the number of molecules, sites or subunits per partner or assembly.

Procedure for Pseudomonas aeruginosa: Sau and Pseudomonas aeruginosa (electronic supplementary material, table S2) were grown for 18 ± 2 h in 5 ml of LB medium at 37°C and 180 r.p.m. Cultures were then diluted in fresh LB medium to contain 2.7 × 10^6 CFU ml^−1. A Nunc Microwell 96-well flat-bottom plate (Thermo Scientific) was seeded in triplicate (from three independent starter cultures) with 75 µl of each of the diluted cultures and 75 µl of 2× working solutions of DHNA, MK-4 or DHNA + MK-4 (prepared from the following stock solutions: 100 mM DHNA dissolved in dimethyl sulfoxide (DMSO), and 50 mM MK-4 (Sigma-Aldrich) dissolved in 100% ethanol). Plate wells contained a final concentration of 10^6 CFU well^−1 with 0, 50 or 100 µM DHNA for growth assays, or with 0 or 100 µM DHNA supplemented with 337 µM MK-4 for growth rescue assays. Plates were incubated at 37°C and 300 r.p.m. for 24 h. Growth was determined by measuring the OD600 of the cultures every 30 min during the incubation period. Data from biological replicates were averaged and subtracted from blank data (sterile medium with appropriate additives).

On to `O=C(O)c1cc(O)c2ccccc2c1O` [DHNA, 1,4-dihydroxy-2-naphthoic acid], for which the “activity reduction in the presence of 12.5 µM DHNA” value on Sau-MenDATCC 25923 [1] (12.5 µM DHNA, 0.4 µM enzyme, 100 µM ThDP, 300 µM oxoglutarate, 10 µM isochorismate) worked out at 87%. Besides, the Hill slope is on record as −0.99 on Sau-MenDATCC 25923 [1] (setting [9]); −2.3 in data set [2] (four-parameter Hill fit, complete CI not determinable, best-fit value to be interpreted with caution); −1.2 in data set [3]; −1.0 at WT Sau-MenDIS1 (setting [9]); −1.0 in data set [7] (setting [9]). Also, the half-maximal inhibitory concentration (IC50) at Sau-MenDATCC 25923 [1] (read-out: IC50 of DHNA, 0.4 µM enzyme, 100 µM ThDP, 300 µM oxoglutarate, 10 µM isochorismate) was 2.3 µM; in data set [2], above 10 µM; in the data set with Mtb-MenD it was 0.053 µM; in data set [4], above 10 µM; at WT Sau-MenDIS1 (0.4 µM enzyme, 100 µM ThDP, 300 µM oxoglutarate, 10 µM isochorismate, 30 min preincubation 37°C), 3.7 µM; in data set [7], 4.6 µM. Moreover, the inhibition at 12.5 µM in data set [2] (setting [10]) amounted to 21%; at WT Sau-MenDIS1 (12.5 µM DHNA, 0.4 µM enzyme, 100 µM ThDP, 300 µM oxoglutarate, 10 µM isochorismate, read-out: activity reduction in the presence of 12.5 µM DHNA), 82%; in data set [7] (setting [10]) it was 80%. Besides, the effect on growth result in data set [5] (50 µM DHNA, all four Sau strains) is reported as “clearly impaired the growth”; in data set [5] (100 µM DHNA) it was “growth impact was more severe”; in [5] (150 µM DHNA, all four Sau), “completely inhibited”; with Pseudomonas aeruginosa, “unaffected”. The dissociation constant Kd on Sau-MenDIS1 (+ 100 μM ThDP, 1 µM enzyme, read-out: Kd for DHNA) was 98 µM; at Sau-MenDIS1 (+ 100 μM ThDP/300 μM oxoglutarate, 1 µM enzyme, read-out: Kd for DHNA), 58 µM; at Sau-MenDIS1 (apo-enzyme, 1 µM enzyme, 25°C, read-out: Kd for DHNA), 110 µM; on Sau-MenDIS1 (apo-enzyme, ThDP-bound and ThDP- and oxoglutarate-bound forms, read-out: Kd values for DHNA (span over enzyme forms)) it was 58 to 110 µM; at Sau-MenDATCC 25923 [6] (+ 100 μM ThDP/300 μM oxoglutarate) it was 67 µM; at Sau-MenDATCC 25923 [6] (apo-enzyme, 25°C), 85 µM. Moreover, in the data set on Sau, the “effect on susceptibility of Sau to cannabidiol” value is on record as “increased the susceptibility”.
Take `CC(C)=CCC/C(C)=C/CC/C(C)=C/CC/C(C)=C/CC1=C(C)C(=O)c2ccccc2C1=O` [MK-4]: the “effect on growth, MK-4 alone” value in the data set on Sau strains (337 µM MK-4 (150 µg ml−1), absence of DHNA) is recorded as “slightly impacted the growth”. Also, in the data set on Sau strains (337 µM MK-4 added to medium containing 100 µM DHNA, compared with 100 µM DHNA only), the “growth rescue of DHNA-treated Sau” value is reported as “significant growth improvement”. Also, the “effect on susceptibility of Sau to cannabidiol” value with Sau is “prevented cannabidiol-mediated growth impairment”.

B1: Staphylococcus aureus IS1 MenD (SEPHCHC synthase), wild type (enzyme, UniProt Q2FZL7 1-557, looked up)
chain: MGNHKAALTKQVFTFASELYAYGVREVVISPGSRSTPLALAFEAHPNIKTWIHPDERSAAFFAVGLIKGSERPVAILCTSGTAAANYTPAIAESQISRIPLIVLTSDRPHELRSVGAPQAINQVNMFNNYVSYEFDMPIADDSKETIDAIYYQMQIASQYLYGPHKGPIHFNLPFRDPLTPDLNATELLTSEMKILPHYQKSIDASALRHILNKKKGLIIVGDMQHQEVDQILTYSTIYDLPILADPLSHLRKFDHPNVICTYDLLFRSGLDLNVDFVIRVGKPVISKKLNQWLKKTDAFQILVQNNDKIDVFPIAPDISYEISANDFFRSLMEDTTVNRVSWLEKWQCLEKKGRKEIKCYLEQATDESAFVGELIKKTSEKDALFISNSMPIRDVDNLLLNKNIDVYANRGANGIDGIVSTALGMAVHKRITLLIGDLSFYHDMNGLLMSKLNNIQMNIVLLNNDGGGIFSYLPQKESATDYFERLFGTPTGLDFEYTAKLYQFDFKRFNSVSEFKNATLLSETSTIYELITNREDNFKQHQILYQKLSEMIHDTL
notes: MenD (SEPHCHC synthase) of Staphylococcus aureus IS1; the structure numbers residues up to 557; Cloned in a modified pET30a by NcoI and HindIII; also called Sau-MenDIS1; Sau-MenD IS1; source: E. coli BL21 (DE3), purified (IMAC, TEV cleavage, subtractive IMAC, SEC); not shown: His6, N-terminal, cleaved
Regarding B1, the “stoichiometry N” value in data set [8] was 4.

B2: Staphylococcus aureus ATCC 25923 MenD (SEPHCHC synthase) (enzyme)
chain: B1 chain with N274K, C349R, L350I, I432V, S512N
With B2, in [8], the “stoichiometry N” value was 4.
